# Assay results as given in patent publication US6814969B2, “Immunologically significant herpes simplex virus antigens and methods for using same” (University of Washington, priority 2001, dated 2004).
# Columns and labels:
# Assay type in all cases: cell-based, human
# [1] = tested on: TCC 4.2E1; test: T-cell proliferation ([3H]thymidine incorporation), TCC 4.2E1; details: FIG. 3; peptides used at 3 μM; autologous EBV-LCL APC
# Procedure: (§1) Triplicate proliferation assay wells contained 10^4 cloned T-cells, 10^5 irradiated (3300 rad) PBMC or 2.5×10^4 irradiated (8000 rad) EBV-LCL as antigen presenting cells (APC), and antigen in 200 μl T-cell media (D. M. Koelle et al., 1997, Human. Immunol., 53:195-205) in 96-well U-bottom plates. When heat-killed bacteria were used as antigen, the equivalent of 10^5 cfu/well (prior to inactivation) was added and gentamicin (20 μg/ml) was included. After 72 hours, 1 μCi/well ^[3]H thymidine was added for 18 hours, cells were harvested, and incorporation of thymidine evaluated by liquid scintillation counting. Standard deviations were less than 10% of the mean values. Results are reported as mean cpm or as delta cpm=mean cpm for experimental antigen minus mean cpm for control antigen. Control antigen was mock-infected cell lysate for whole viral antigens and pUEX2-derived β-galactosidase for recombinant protein preparations. To determine the reactivity of bulk-cultured lesion-derived T-cells, fusion proteins or control β-galactosidase were used at 10 μg/ml. […]
# [2] = tested on: TCC 4.2E1; test: Cytolysis assay (4-hour 51Cr release), CD4 TCC 4.2E1; details: E:T 20:1
# Procedure: (§2) Cytolysis assays were performed in triplicate using 4-hour [^51]Cr release as described (D. M. Koelle et al., 1993, J. Clin. Invest., 91:961-968). […] W. Kwok et al., 1996,J. Exp. Med., 183:1253-1258). The effector to target ratio was 20:1. Spontaneous release was less than 28%.
# [3] = tested on: lesion-derived T cells; test: Recognition of ICP0 epitopes by lesion-derived T cells; details: 743-751: CD8+ T cells, HLA allele B*0702
# Excerpt: The recognition event involves HLA allele B*0702, which is relatively common (approximately 10%) in the human population.
# [4] = tested on: TCC RH.13; test: Cytolysis assay (4-hour 51Cr release), CD4 TCC RH.13; details: HSV-2 infected or 1 μM peptide, E:T 20:1
# Procedure: as §2
# [5] = tested on: TCC RH.13; test: T-cell proliferation, TCC RH.13; details: for delta cpm [3H] thymidine incorporation compared to media: TCC RH.13, VP16 1-492 at 1 μg/ml, β-gal-VP16 180-492 at 1:1,000, peptides at 1 μM
# Procedure: (§3) Triplicate proliferation assay wells contained 10^4 cloned T-cells, 10^5 irradiated (3300 rad) PBMC or 2.5×10^4 irradiated (8000 rad) EBV-LCL as antigen presenting cells (APC), and antigen in 200 μl T-cell media (D. M. Koelle et al., 1997, Human. Immunol., 53:195-205) in 96-well U-bottom plates. When heat-killed bacteria were used as antigen, the equivalent of 10^5 cfu/well (prior to inactivation) was added and gentamicin (20 μg/ml) was included. After 72 hours, 1 μCi/well ^[3]H thymidine was added for 18 hours, cells were harvested, and incorporation of thymidine evaluated by liquid scintillation counting. Standard deviations were less than 10% of the mean values. Results are reported as mean cpm or as delta cpm=mean cpm for experimental antigen minus mean cpm for control antigen. Control antigen was mock-infected cell lysate for whole viral antigens and pUEX2-derived β-galactosidase for recombinant protein preparations. To determine the reactivity of bulk-cultured lesion-derived T-cells, fusion proteins or control β-galactosidase were used at 10 μg/ml. To determine HLA restricting loci, HLA DR-specific mAb L243 (V. G. Preston et al., 1978, J. Virol., 28:499-517), HLA DP-specific mAb B7.21 (A. J. Watson et al., 1983, Nature, 304:358-360), or HLA DQ-specific mAb SpV-L3 (H. Spits et al., 1984, Eur. J. Immunol., 14:299-304) were used as described (D. M. Koelle et al., 1994, J. Virol. 68:2803-2810).
# Three epitopes within VP16, all HSV-2 type-specific were previously identified (K. R. Jerome et al., 1998, J. Virol., 72:436-441), and proliferative responses to full-length VP16 in bulk cultures of genital HSV-2 lesion-infiltrating lymphocytes from four of seven (57%) patients were detected (D. M. Koelle et al., 1998, J. Clin. Invest., 101:1500-09). Additional peptide epitopes were sought within VP16 by two strategies. The first strategy involved screening panels of clones recovered from lesion vesicle fluid for reactivity with recombinant VP16 of HSV-2 followed by epitope mapping with peptides. […]
# [6] = tested on: TCC KM.7; test: T-cell proliferation, TCC KM.7; details: VP16 1-492 at 1 μg/ml, β-gal-VP16 180-492 at 1:1,000, peptides at 1 μM
# Procedure: as §1, with “preparations.” for “preparations. To determine the reactivity of bulk-cultured lesion-derived T-cells, fusion proteins or control β-galactosidase were used at 10 μg/ml.”
# (§4) Three epitopes within VP16, all HSV-2 type-specific were previously identified (K. R. Jerome et al., 1998, J. Virol., 72:436-441), and proliferative responses to full-length VP16 in bulk cultures of genital HSV-2 lesion-infiltrating lymphocytes from four of seven (57%) patients were detected (D. M. Koelle et al., 1998, J. Clin. Invest., 101:1500-09). […]
# [7] = tested on: TCC KM.7; test: Cytolysis assay (4-hour 51Cr release), CD4 TCC KM.7; details: HSV-2 infected or 1 μM peptide, E:T 20:1
# Procedure: as §2
# [8] = tested on: TCC ESL4.34; test: Cytolysis assay (4-hour 51Cr release), CD4 TCC ESL4.34; details: HSV-2 infected or 1 μM peptide, E:T 10:1
# Procedure: Cytolysis assays were performed in triplicate using 4-hour [^51]Cr release as described (D. M. Koelle et al., 1993, J. Clin. Invest., 91:961-968). […] W. Kwok et al., 1996,J. Exp. Med., 183:1253-1258). […] Spontaneous release was less than 28%.
# [9] = tested on: TCC ESL4.34; test: T-cell proliferation, TCC ESL4.34; details: VP16 1-492 at 1 μg/ml, β-gal-VP16 180-492 at 1:1,000, peptides at 1 μM
# Procedure: as §3
# [10] = tested on: TCC ESL3.334; test: T-cell proliferation, TCC ESL3.334; details: VP16 1-492 at 1 μg/ml, β-gal-VP16 180-492 at 1:1,000, peptides at 1 μM
# Procedure: as §3
# [11] = tested on: TCC ESL3.334; test: Cytolysis assay (4-hour 51Cr release), CD4 TCC ESL3.334; details: HSV-2 infected or 1 μM peptide, E:T 20:1
# Procedure: as §2
# [12] = tested on: TCC 1A.B.25; test: T-cell proliferation, TCC 1A.B.25; details: VP16 1-492 at 1 μg/ml, β-gal-VP16 180-492 at 1:1,000, peptides at 1 μM
# Procedure: as §3
# [13] = tested on: TCC 1A.B.25; test: Cytolysis assay (4-hour 51Cr release), CD4 TCC 1A.B.25; details: HSV-2 infected or 1 μM peptide, E:T 20:1
# Procedure: as §2
# [14] = tested on: TCC SB.17; test: T-cell proliferation, TCC SB.17; details: VP16 1-492 at 1 μg/ml, β-gal-VP16 180-492 at 1:1,000, peptides at 1 μM
# Procedure: as §1, with “preparations.” for “preparations. To determine the reactivity of bulk-cultured lesion-derived T-cells, fusion proteins or control β-galactosidase were used at 10 μg/ml.”
# as §4
# [15] = tested on: TCC BM.17; test: T-cell proliferation, TCC BM.17; details: VP16 1-492 at 1 μg/ml, β-gal-VP16 180-492 at 1:1,000, peptides at 1 μM
# Procedure: as §1, with “preparations.” for “preparations. To determine the reactivity of bulk-cultured lesion-derived T-cells, fusion proteins or control β-galactosidase were used at 10 μg/ml.”
# as §4
# [16] = tested on: bulk cultures of lesion-infiltrating T-cells; test: Reactivity of bulk cultures of lesion-infiltrating T-cells with HSV antigens; details: four biopsies, day 5 of a buttock recurrence of HSV-2, patient 1; fusion proteins at 10 μg/ml
# Procedure: as §1
# [17] = allogeneic mismatched EBV-LCL targets
molecule,measurement,setting,value
GGPVGAGGRSHAPPARTPKMTR (GGPVGAGGRSHAPARTPKMTR) [VP22 105-126],stimulation of TCC 4.2E1 by overlapping peptides,[1],stimulatory
same,percent specific release,"[2]; allogeneic mismatched EBV-LCL targets, HSV-2 infected or 1 μM peptide",−1.7%
same,percent specific release,"[2]; autologous EBV-LCL targets, HSV-2 infected or loaded with 1 μM peptide",44.2%
"ICP0 743-751: amino acids 743-751 of ICP0 (QGTLVGALD; UniProt P08393 743-751, looked up, fragment)",recognition by lesion-derived T cells,[3],specific recognition
"VP16 185-197: HSV-2 VP16 (UL48) peptide, amino acids 185-197",percent specific release,[4]; [17],0.3%
same,percent specific release,[4]; autologous EBV-LCL targets,55.2%
same,delta cpm [3H] thymidine incorporation compared to media,[5],"55,614 cpm"
same,stimulation of TCC RH.13 by VP16 peptides,[5]; epitope mapping with peptides,stimulatory
"VP16 209-221: HSV-2 VP16 (UL48) peptide, amino acids 209-221",delta cpm [3H] thymidine incorporation compared to media,[6],"10,075 cpm"
same,percent specific release,[7]; [17],4.3%
same,percent specific release,[7]; autologous EBV-LCL targets,43.6%
"VP16 393-405: previously reported HSV-2 VP16 peptide epitope, amino acids 393-405 (LVAPRMSFLSAGQ; UniProt P68336 393-405, looked up, fragment)",percent specific release,[8]; [17],0.6%
same,percent specific release,[8]; autologous EBV-LCL targets,10.4%
same,delta cpm [3H] thymidine incorporation compared to media,[9],"95,942 cpm"
"VP16 430-444: previously reported HSV-2 VP16 peptide epitope, amino acids 430-444 (EEVDMTPADALDDFD; UniProt P68336 430-444, looked up, fragment)",delta cpm [3H] thymidine incorporation compared to media,[10],"27,283 cpm"
same,percent specific release,[11]; [17],0.3%
same,percent specific release,[11]; autologous EBV-LCL targets,33.6%
"VP16 431-440: previously reported HSV-2 VP16 peptide epitope, amino acids 431-440 (EVDMTPADAL; UniProt P68336 431-440, looked up, fragment)",delta cpm [3H] thymidine incorporation compared to media,[12],"38,664 cpm"
same,percent specific release,[13]; [17],2.1%
same,percent specific release,[13]; autologous EBV-LCL targets,42.2%
VP16 1-492: baculovirus-derived recombinant HSV-2 VP16 1-492 (protein) MDLLVDDLFADADGVSPPPPRPAGGPKNTPAAPPLYATGRLSQAQLMPSPPMPVPPAALFNRLLDDLGFSAGPALCTMLDTWNEDLFSGFPTNADMYRECKFLSTLPSDVIDWGDAHVPERSPIDIRAHGDVAFPTLPATRDELPSYYEAMAQFFRGELRAREESYRTVLANFCSALYRYLRASVRQLHRQAHMRGRNRDLREMLRTTIADRYYRETARLARVLFLHLYLFLSREILWAAYAEQMMRPDLFDGLCCDLESWRQLACLFQPLMFINGSLTVRGVPVEARRLRELNHIREHLNLPLVRSAAAEEPGAPLTTPPVLQGNQARSSGYFMLLIRAKLDSYSSVATSEGESVMREHAYSRGRTRNNYGSTIEGLLDLPDDDDAPAEAGLVAPRMSFLSAGQRPRRLSTTAPITDVSLGDELRLDGEEVDMTPADALDDFDLEMLGDVESPSPGMTHDPVSYGALDVDDFEFEQMFTDAMGIDDFGG,delta cpm [3H] thymidine incorporation compared to media,[12],"24,919 cpm"
same,delta cpm [3H] thymidine incorporation compared to media,[6],"5,627 cpm"
same,delta cpm [3H] thymidine incorporation compared to media,[9],"17,302 cpm"
same,delta cpm [3H] thymidine incorporation compared to media,[5],"32,991 cpm"
same,delta cpm [3H] thymidine incorporation compared to media,[10],"22,754 cpm"
"β-gal-VP16 180-492: β-galactosidase fusion protein with HSV-2 VP16 180-492 (protein, left off: large carriers) YLRASVRQLHRQAHMRGRNRDLREMLRTTIADRYYRETARLARVLFLHLYLFLSREILWAAYAEQMMRPDLFDGLCCDLESWRQLACLFQPLMFINGSLTVRGVPVEARRLRELNHIREHLNLPLVRSAAAEEPGAPLTTPPVLQGNQARSSGYFMLLIRAKLDSYSSVATSEGESVMREHAYSRGRTRNNYGSTIEGLLDLPDDDDAPAEAGLVAPRMSFLSAGQRPRRLSTTAPITDVSLGDELRLDGEEVDMTPADALDDFDLEMLGDVESPSPGMTHDPVSYGALDVDDFEFEQMFTDAMGIDDFGG",delta cpm [3H] thymidine incorporation compared to media,[14],"12,178 cpm"
same,delta cpm [3H] thymidine incorporation compared to media,[12],"41,123 cpm"
same,delta cpm [3H] thymidine incorporation compared to media,[15],"45,958 cpm"
same,delta cpm [3H] thymidine incorporation compared to media,[10],"16,434 cpm"
"VP22 105-190: fusion protein containing VP22 amino acids 105-190 (protein, left off: large carriers) GGPVGAGGRSHAPPARTPKMTRGAPKASATPATDPARGRRPAQADSAVLLDAPAPTASGRTKTPAQGLAKKLHFSTAPPSPTAPWT",reactivity of bulk lesion-infiltrating T-cell cultures,[16],showed reactivity
